Reference: US20220387491A1, “METHODS OF MAKING CELLULAR THERAPIES” (Secura Bio, Inc., priority 2019, published 2022)
Entries after “also recorded” stand apart in the source; their conditions may differ.

Assays:
[1] = read-out: Cmax (ss); reported clinical plasma exposure at recommended phase II dose (RP2D); cited from earlier work
[2] = target: T1, PI3K-γ (Homo sapiens, UniProt P48736); assay: Whole blood assay, p-Akt S473 in fMLP-stimulated monocytes; assay type: cell-based; set-up: from tissue; host or cells: whole blood; fMLP-stimulated monocytes (gated by flow cytometry); settings: for PI3K-γ inhibition at clinically achievable exposures (in words): whole blood assay related to clinical plasma exposure
T1 sequence (P48736 whole entry): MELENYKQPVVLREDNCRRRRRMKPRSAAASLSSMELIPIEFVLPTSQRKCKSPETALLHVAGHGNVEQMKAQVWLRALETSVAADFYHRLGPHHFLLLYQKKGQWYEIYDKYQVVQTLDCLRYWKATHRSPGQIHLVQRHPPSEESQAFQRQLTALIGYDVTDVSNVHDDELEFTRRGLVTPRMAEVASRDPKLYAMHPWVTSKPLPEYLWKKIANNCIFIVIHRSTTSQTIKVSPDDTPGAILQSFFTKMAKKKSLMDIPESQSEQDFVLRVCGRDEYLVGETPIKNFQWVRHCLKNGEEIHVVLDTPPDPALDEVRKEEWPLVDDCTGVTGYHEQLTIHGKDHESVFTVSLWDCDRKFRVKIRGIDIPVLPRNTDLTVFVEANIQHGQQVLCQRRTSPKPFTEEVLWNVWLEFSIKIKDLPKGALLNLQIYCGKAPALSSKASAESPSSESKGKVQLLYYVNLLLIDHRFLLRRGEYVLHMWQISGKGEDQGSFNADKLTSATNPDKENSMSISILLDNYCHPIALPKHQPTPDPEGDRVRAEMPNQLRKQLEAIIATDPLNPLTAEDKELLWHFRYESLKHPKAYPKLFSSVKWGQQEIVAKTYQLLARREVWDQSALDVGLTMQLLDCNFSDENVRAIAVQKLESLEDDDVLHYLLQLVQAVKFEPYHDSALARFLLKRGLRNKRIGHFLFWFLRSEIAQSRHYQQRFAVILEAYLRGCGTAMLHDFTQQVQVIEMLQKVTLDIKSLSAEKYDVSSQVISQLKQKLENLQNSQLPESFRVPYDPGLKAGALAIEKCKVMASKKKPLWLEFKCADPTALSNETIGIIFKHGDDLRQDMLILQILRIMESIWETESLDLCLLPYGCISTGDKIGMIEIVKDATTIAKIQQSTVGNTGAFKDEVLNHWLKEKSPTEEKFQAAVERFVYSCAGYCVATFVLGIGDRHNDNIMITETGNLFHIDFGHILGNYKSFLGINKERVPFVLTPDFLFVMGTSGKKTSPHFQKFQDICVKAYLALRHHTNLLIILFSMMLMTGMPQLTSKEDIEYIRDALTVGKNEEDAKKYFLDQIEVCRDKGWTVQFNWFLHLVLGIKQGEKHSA
Experimental: Briefly, LPS-stimulated monocytes and fMLP-stimulated monocytes were cultured in the presence of 2 μg/mL LPS or 50 ng/mL fMLP, respectively. After 10 minutes of stimulation, red blood cells were lysed and remaining leukocytes were fixed, permeabilized and stained with CD45, CD3, CD45RA, CD14, CD19 and p-Akt S473 (D9E clone) antibodies. […] Monocytes were gated and the percentage of positive p-Akt monocytes was measured. IC50 dose curves were generated and IC50 values calculated.
(§1) Whole blood potencies against PI3K-δ and PI3K-γ were measured through inhibition of p-Akt in LPS-stimulated monocytes and fMLP-stimulated monocytes, respectively. Whole blood assay IC50 values, which encompass enzyme inhibition, cell penetration, and protein binding of inhibitors, are related to reported clinical plasma exposures of each agent at recommended phase II dose (RP2D).

[3] = target: T2, PI3K-δ (Homo sapiens, UniProt O00329); assay: Whole blood assay, p-Akt S473 in LPS-stimulated monocytes; assay type: cell-based; set-up: from tissue; host or cells: whole blood; LPS-stimulated monocytes (gated by flow cytometry); settings: for PI3K-δ inhibition at clinically achievable exposures (in words): whole blood assay related to clinical plasma exposure
T2 sequence (O00329 whole entry): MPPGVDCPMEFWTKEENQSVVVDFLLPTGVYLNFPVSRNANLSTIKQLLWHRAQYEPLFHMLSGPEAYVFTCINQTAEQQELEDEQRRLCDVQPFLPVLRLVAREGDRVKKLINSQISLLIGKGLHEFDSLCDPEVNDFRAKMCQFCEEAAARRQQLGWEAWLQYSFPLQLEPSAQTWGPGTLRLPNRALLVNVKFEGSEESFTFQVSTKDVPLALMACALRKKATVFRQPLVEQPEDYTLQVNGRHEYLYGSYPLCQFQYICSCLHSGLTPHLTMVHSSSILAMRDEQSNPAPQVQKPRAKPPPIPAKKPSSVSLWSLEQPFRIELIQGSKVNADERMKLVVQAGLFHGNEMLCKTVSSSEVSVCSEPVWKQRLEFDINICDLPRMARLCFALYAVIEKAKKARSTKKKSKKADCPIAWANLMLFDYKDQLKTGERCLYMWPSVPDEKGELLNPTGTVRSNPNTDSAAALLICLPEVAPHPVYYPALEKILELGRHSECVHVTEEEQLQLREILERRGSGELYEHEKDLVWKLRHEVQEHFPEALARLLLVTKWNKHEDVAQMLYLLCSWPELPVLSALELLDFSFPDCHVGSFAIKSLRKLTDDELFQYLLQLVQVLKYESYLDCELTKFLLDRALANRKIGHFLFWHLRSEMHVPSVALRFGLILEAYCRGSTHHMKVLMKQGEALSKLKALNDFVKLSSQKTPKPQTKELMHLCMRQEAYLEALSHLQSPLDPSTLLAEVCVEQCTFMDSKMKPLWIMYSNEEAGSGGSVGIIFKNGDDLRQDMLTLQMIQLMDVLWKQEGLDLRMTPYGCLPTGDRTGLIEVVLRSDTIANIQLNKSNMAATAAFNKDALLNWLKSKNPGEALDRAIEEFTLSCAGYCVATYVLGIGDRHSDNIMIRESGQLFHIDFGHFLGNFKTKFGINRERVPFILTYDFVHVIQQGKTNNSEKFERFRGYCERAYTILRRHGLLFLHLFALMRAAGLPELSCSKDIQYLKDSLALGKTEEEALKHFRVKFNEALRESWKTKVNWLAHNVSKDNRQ
T2 sequence (P27986 whole entry partner): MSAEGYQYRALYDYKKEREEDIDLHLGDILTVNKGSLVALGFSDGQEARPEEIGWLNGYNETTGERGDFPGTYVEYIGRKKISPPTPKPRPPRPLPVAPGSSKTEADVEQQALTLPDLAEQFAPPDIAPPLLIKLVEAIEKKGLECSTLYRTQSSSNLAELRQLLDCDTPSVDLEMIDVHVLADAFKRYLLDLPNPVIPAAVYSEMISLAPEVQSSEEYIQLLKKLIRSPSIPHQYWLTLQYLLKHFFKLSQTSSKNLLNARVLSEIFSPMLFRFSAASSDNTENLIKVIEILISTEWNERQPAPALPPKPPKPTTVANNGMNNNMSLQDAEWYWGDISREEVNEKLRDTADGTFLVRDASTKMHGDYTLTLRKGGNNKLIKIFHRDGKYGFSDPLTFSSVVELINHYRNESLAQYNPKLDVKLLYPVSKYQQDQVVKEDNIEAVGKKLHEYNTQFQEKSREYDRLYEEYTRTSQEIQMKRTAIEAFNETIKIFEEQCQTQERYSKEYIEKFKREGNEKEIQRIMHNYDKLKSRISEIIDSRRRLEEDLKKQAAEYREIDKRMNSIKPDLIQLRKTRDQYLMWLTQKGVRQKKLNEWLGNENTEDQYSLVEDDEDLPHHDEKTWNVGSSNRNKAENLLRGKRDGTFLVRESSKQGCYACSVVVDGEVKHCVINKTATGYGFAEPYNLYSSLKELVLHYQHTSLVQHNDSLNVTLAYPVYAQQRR
Experimental: (§2) The relative effects of different PI3K inhibitors on PI3K-δ and PI3K-γ cell signaling downstream of LPS and fMLP, respectively, were assessed in whole blood using phosphorylated (p)-Akt serine-473 as the readout. Briefly, LPS-stimulated monocytes and fMLP-stimulated monocytes were cultured in the presence of 2 μg/mL LPS or 50 ng/mL fMLP, respectively. After 10 minutes of stimulation, red blood cells were lysed and remaining leukocytes were fixed, permeabilized and stained with CD45, CD3, CD45RA, CD14, CD19 and p-Akt S473 (D9E clone) antibodies. Data was acquired on an LSRII cytometer (BD Biosciences) equipped with at least 4 lasers (405, 488, 561, and 640 nm). Monocytes were gated and the percentage of positive p-Akt monocytes was measured. IC50 dose curves were generated and IC50 values calculated.
as §1

[4] = tested on: T cells from human donors or CLL patients; assay: Ex vivo T cell expansion; assay type: cell-based
[5] = tested on: T cells; assay: Expression of T cell exhaustion markers (TIM-3, LAG-3) by flow cytometry; assay type: cell-based, human
Text: (§3) These early memory T cells populations have been associated with CAR-T cells that induce complete remissions.

[6] = tested on: T cells taken from CLL patients; assay: Proportion of early memory T cell populations; assay type: cell-based, human; settings: 200 nM; compared with standard culture conditions
Text: as §3

[7] = tested on: CD19 CAR-T cells; assay: CAR-T-mediated cytotoxicity against tumor cells; assay type: cell-based; settings: addition during generation of CD19 CAR-T cells
Text: as §3

[8] = target: T1, PI3K-γ; assay: PI3K-γ target inhibition in follicular lymphoma patients after oral dosing; assay type: in vivo; set-up: from tissue; host or cells: whole blood of follicular lymphoma patients after oral dosing
Experimental: as §2
(§4) At cycle 2 Day 1 pre, a timepoint corresponding to the 12 hour point when the next dose is to be given, the degree of inhibition is decreased; however, inhibition is re-established with the administration of the next dose.
Accordingly, BID should then re-establish inhibition in this 60-70% range.

[9] = target: T2, PI3K-δ; assay: PI3K-δ target inhibition in follicular lymphoma patients after oral dosing; assay type: in vivo; set-up: from tissue; host or cells: whole blood of follicular lymphoma patients after oral dosing
Experimental: as §2, §4

SMILES | Cmax [1] | PI3K-δ inhibition at clinically achievable exposures (in words) [3] | concentration of maximal effect on T cell expansion [4] | PI3K-γ inhibition at clinically achievable exposures (in words) [2] | further results
CC(C)Oc1ccc(-c2nn([C@@H](C)c3oc4ccc(F)cc4c(=O)c3-c3cccc(F)c3)c3ncnc(N)c23)cc1F [Umbralisib] | 9.2 µM |  |  |  | IC50 [2]: 55 ± 16 µM
CC[C@H](Nc1ncnc2[nH]cnc12)c1nc2cccc(F)c2c(=O)n1-c1ccccc1 [Idelalisib, (S)-2-(1-(9H-purin-6-ylamino)propyl)-5-fluoro-3-phenylquinazolin-4(3H)-one] | 4.8 µM | single isoform inhibition; also recorded: sufficient to inhibit PI3K-δ | 1 µM | not sufficient to inhibit PI3K-γ | 
CC[C@H](Nc1ncnc2nc[nH]c12)c1oc2ccccc2c(=O)c1-c1cccc(F)c1 [Tenalisib, (S)-2-(1-((7H-purin-6-yl)amino)propyl)-3-(3-fluorophenyl)-4H-chromen-4-one] |  | did not meaningfully inhibit |  | did not meaningfully inhibit | IC50 ([3]; whole blood, inhibition of p-Akt in LPS-stimulated monocytes, read-out: PI3Kδ IC50): > 50 µM; PI3Kγ IC50 ([2]; whole blood, inhibition of p-Akt in fMLP-stimulated monocytes): No inhibition
C[C@H](NC(=O)c1c(N)nn2cccnc12)c1cc2cccc(C#Cc3cnn(C)c3)c2c(=O)n1-c1ccccc1 [IPI-549, 2-amino-N-[(1S)-1-[8-[2-(1-methylpyrazol-4-yl)ethynyl]-1-oxo-2-phenylisoquinolin-3-yl]ethyl]pyrazolo[1,5-a]pyrimidine-3-carboxamide] | 9.1 µM | not PI3K-δ |  |  | 
C[C@H](Nc1ncnc2[nH]cnc12)c1cc2cccc(Cl)c2c(=O)n1-c1ccccc1 [Duvelisib, (S)-3-(1-((9H-purin-6-yl)amino)ethyl)-8-chloro-2-phenylisoquinolin-1(2H)-one] | 2.5 µM | inhibited both PI3K-δ and PI3K-γ | 0.04 µM | inhibited both PI3K-δ and PI3K-γ | expression of T cell exhaustion markers (TIM-3, LAG-3) [5]: reduces expression; proportion of early memory T cell populations [6]: increases the proportion of early memory T cell populations; cytotoxic activity of CAR-T cells to kill tumor cells [7]: increases; increase in T cell expansion ([4]; T cells from human donors or CLL patients): 3 to 4 fold; degree of inhibition of PI3K-γ ([8]; cycle 2 Day 1 pre): decreased; inhibition of PI3K-γ ([8]; follicular lymphoma patients, 25 mg, 1 and 4 hours): 60-70%; degree of inhibition of PI3K-δ ([9]; cycle 2 Day 1 pre (12 hour point before next dose)): decreased; inhibition at 25 mg ([9]; human, follicular lymphoma patients, 25 mg oral, 1 and 4 hours after dosing): 90 to 95%
